ChEMBL document CHEMBL1201861, “Genomics of Drug Sensitity in Cancer screening data, Wellcome Trust Sanger Institute”
Values joined by “and” are separate entries in the source; they are usually repeats but may differ in a detail not shown here. Identical values can stand only once.

How the values were obtained:
Experiment in all cases: cells
[1] = system: COLO-741; format: functional, cell-based, Homo sapiens
Description: SANGER: Inhibition of human COLO-741 cell growth in a cell viability assay.

[2] = system: COLO-829; format: functional, cell-based, Homo sapiens
Description: SANGER: Inhibition of human COLO-829 cell growth in a cell viability assay.

[3] = system: Calu-3; format: functional, cell-based, Homo sapiens;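 also: growth inhibition of human Calu-3 cells, determined with a cell viability assay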
Description: SANGER: Inhibition of human Calu-3 cell growth in a cell viability assay.

[4] = system: EKVX; format: functional, cell-based, Homo sapiens;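 also: growth inhibition of human EKVX cells, read out with a cell viability assay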
Description: SANGER: Inhibition of human EKVX cell growth in a cell viability assay.

[5] = system: ES8; format: functional, cell-based, Homo sapiens;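 also: growth inhibition of human ES8 cells, read out with a cell viability assay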
Description: SANGER: Inhibition of human ES8 cell growth in a cell viability assay.

[6] = system: EW-16; format: functional, cell-based, Homo sapiens;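 also: growth inhibition of human EW-16 cells, read out as cell viability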
Description: SANGER: Inhibition of human EW-16 cell growth in a cell viability assay.

[7] = system: GAK; format: functional, cell-based, Homo sapiens;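 also: cell growth inhibition read out by a cell viability assay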
Description: SANGER: Inhibition of human GAK cell growth in a cell viability assay.

[8] = system: GI-ME-N; format: functional, cell-based, Homo sapiens;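 also: growth inhibition of human GI-ME-N cells, read out with a cell viability assay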
Description: SANGER: Inhibition of human GI-ME-N cell growth in a cell viability assay.

[9] = system: GMS-10; format: functional, cell-based, Homo sapiens;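 also: growth inhibition of GMS-10 cells, read out as cell viability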
Description: SANGER: Inhibition of human GMS-10 cell growth in a cell viability assay.

[10] = system: HCC2218; format: functional, cell-based; details: Homo sapiens;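 also: cell viability assay read-out, with IC50 given as the concentration that inhibits growth of the cell line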
Description: SANGER: Inhibition of human HCC2218 cell growth in a cell viability assay.

[11] = system: HCC38; format: functional, cell-based, Homo sapiens;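 also: cell viability assay on the human HCC38 cell line, with IC50 marking the concentration that inhibits cell growth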
Description: SANGER: Inhibition of human HCC38 cell growth in a cell viability assay.

[12] = system: HCE-T; format: functional, cell-based, Homo sapiens;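 also: cell viability assay read-out, reporting inhibition of HCE-T cell growth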
Description: SANGER: Inhibition of human HCE-T cell growth in a cell viability assay.

[13] = system: HD-MY-Z; format: functional, cell-based, Homo sapiens;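 also: growth inhibition of HD-MY-Z cells, read out with a cell viability assay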
Description: SANGER: Inhibition of human HD-MY-Z cell growth in a cell viability assay.

[14] = system: HOP-62; format: functional, cell-based, Homo sapiens;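 also: cell growth inhibition determined with a viability assay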
Description: SANGER: Inhibition of human HOP-62 cell growth in a cell viability assay.

[15] = system: HuP-T3; format: functional, cell-based, Homo sapiens;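 also: HuP-T3 cell growth inhibition, read out with a cell viability assay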
Description: SANGER: Inhibition of human HuP-T3 cell growth in a cell viability assay.

[16] = system: IST-MES1; format: functional, cell-based, Homo sapiens;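 also: growth inhibition of IST-MES1 cells, measured with a cell viability assay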
Description: SANGER: Inhibition of human IST-MES1 cell growth in a cell viability assay.

[17] = system: KARPAS-299; format: functional, cell-based; details: Homo sapiens
Description: SANGER: Inhibition of human KARPAS-299 cell growth in a cell viability assay.

[18] = system: KP-N-YN; format: functional, cell-based; details: Homo sapiens;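 also: growth inhibition of KP-N-YN cells, read out with a cell viability assay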
Description: SANGER: Inhibition of human KP-N-YN cell growth in a cell viability assay.

[19] = system: L-363; format: functional, cell-based; details: Homo sapiens
Description: SANGER: Inhibition of human L-363 cell growth in a cell viability assay.

[20] = system: LB1047-RCC; format: functional, cell-based, Homo sapiens;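 also: inhibition of cell growth, determined with a cell viability assay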
Description: SANGER: Inhibition of human LB1047-RCC cell growth in a cell viability assay.

[21] = system: LK-2; format: functional, cell-based, Homo sapiens;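 also: growth inhibition of LK-2 cells, read out with a viability assay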
Description: SANGER: Inhibition of human LK-2 cell growth in a cell viability assay.

[22] = system: MZ7-mel; format: functional, cell-based, Homo sapiens;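 also: growth inhibition of human MZ7-mel cells, measured by a cell viability assay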
Description: SANGER: Inhibition of human MZ7-mel cell growth in a cell viability assay.

[23] = system: NB14; format: functional, cell-based; details: Homo sapiens;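 also: growth inhibition of NB14 cells measured with a cell viability assay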
Description: SANGER: Inhibition of human NB14 cell growth in a cell viability assay.

[24] = system: NB6; format: functional, cell-based, Homo sapiens;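 also: growth inhibition of NB6 cells, read out by a cell viability assay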
Description: SANGER: Inhibition of human NB6 cell growth in a cell viability assay.

[25] = system: NCI-H2052; format: functional, cell-based, Homo sapiens;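 also: growth inhibition of NCI-H2052 cells, read out with a cell viability assay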
Description: SANGER: Inhibition of human NCI-H2052 cell growth in a cell viability assay.

[26] = system: NCI-H28; format: functional, cell-based, Homo sapiens;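 also: growth inhibition of human NCI-H28 cells, read out as cell viability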
Description: SANGER: Inhibition of human NCI-H28 cell growth in a cell viability assay.

[27] = system: NCI-N87; format: functional, cell-based, Homo sapiens;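 also: growth inhibition of human NCI-N87 cells, read out with a cell viability assay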
Description: SANGER: Inhibition of human NCI-N87 cell growth in a cell viability assay.

[28] = system: NOMO-1; format: functional, cell-based; details: Homo sapiens;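 also: growth inhibition of human NOMO-1 cells measured by a cell viability assay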
Description: SANGER: Inhibition of human NOMO-1 cell growth in a cell viability assay.

[29] = system: OCI-AML2; format: functional, cell-based; details: Homo sapiens;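 also: growth inhibition of OCI-AML2 cells, read out with a cell viability assay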
Description: SANGER: Inhibition of human OCI-AML2 cell growth in a cell viability assay.

[30] = system: OVCAR-5; format: functional, cell-based, Homo sapiens;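 also: growth inhibition of human OVCAR-5 cells, read out with a cell viability assay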
Description: SANGER: Inhibition of human OVCAR-5 cell growth in a cell viability assay.

[31] = system: PC-3; format: functional, cell-based, Homo sapiens;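 also: cell viability assay measuring growth inhibition of PC-3 cells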
Description: SANGER: Inhibition of human PC-3 cell growth in a cell viability assay.

[32] = system: RD; format: functional, cell-based, Homo sapiens
Description: SANGER: Inhibition of human RD cell growth in a cell viability assay.

[33] = system: RPMI-8226; format: functional, cell-based; details: Homo sapiens
Description: SANGER: Inhibition of human RPMI-8226 cell growth in a cell viability assay.

[34] = system: SBC-1; format: functional, cell-based; details: Homo sapiens;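 also: cell viability assay measuring growth inhibition of the SBC-1 cell line, IC50 being the concentration that halves growth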
Description: SANGER: Inhibition of human SBC-1 cell growth in a cell viability assay.

[35] = system: SF-295; format: functional, cell-based, Homo sapiens; details: read-out: IC50;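 also: growth inhibition of SF-295 cells, read out with a cell viability assay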
Description: SANGER: Inhibition of human SF295 cell growth in a cell viability assay.

[36] = system: SK-MEL-2; format: functional, cell-based, Homo sapiens;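 also: growth inhibition of human SK-MEL-2 cells measured with a cell viability assay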
Description: SANGER: Inhibition of human SK-MEL-2 cell growth in a cell viability assay.

[37] = system: SKG-IIIa; format: functional, cell-based, Homo sapiens;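 also: cell growth inhibition, read out with a cell viability assay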
Description: SANGER: Inhibition of human SKG-IIIa cell growth in a cell viability assay.

[38] = system: SW837; format: functional, cell-based, Homo sapiens;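 also: growth inhibition of SW837 cells, determined with a cell viability assay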
Description: SANGER: Inhibition of human SW837 cell growth in a cell viability assay.

[39] = system: 769-P; format: functional, cell-based, Homo sapiens
Description: SANGER: Inhibition of human 769-P cell growth in a cell viability assay.

[40] = system: 786-0; format: functional, cell-based, Homo sapiens
Description: SANGER: Inhibition of human 786-0 cell growth in a cell viability assay.

[41] = system: 8305C; format: functional, cell-based, Homo sapiens
Description: SANGER: Inhibition of human 8305C cell growth in a cell viability assay.

[42] = system: A2780; format: functional, cell-based, Homo sapiens;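 also: growth inhibition of A2780 cells, read out with a cell viability assay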
Description: SANGER: Inhibition of human A2780 cell growth in a cell viability assay.

[43] = system: BB30-HNC; format: functional, cell-based, Homo sapiens;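 also: growth inhibition of the cultured cell line, read out by a cell viability assay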
Description: SANGER: Inhibition of human BB30-HNC cell growth in a cell viability assay.

[44] = system: BHT-101; format: functional, cell-based, Homo sapiens
Description: SANGER: Inhibition of human BHT-101 cell growth in a cell viability assay.

[45] = system: Becker; format: functional, cell-based, Homo sapiens;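 also: growth inhibition of Becker cells, read out with a cell viability assay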
Description: SANGER: Inhibition of human Becker cell growth in a cell viability assay.

[46] = system: C-33-A; format: functional, cell-based, Homo sapiens;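 also: cell viability assay measuring growth inhibition of C-33-A cells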
Description: SANGER: Inhibition of human C-33-A cell growth in a cell viability assay.

[47] = system: CAL-27; format: functional, cell-based, Homo sapiens;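 also: Viability-based readout, IC50 reflecting inhibition of CAL-27 cell growth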
Description: SANGER: Inhibition of human CAL-27 cell growth in a cell viability assay.

[48] = system: TE-10; format: functional, cell-based, Homo sapiens;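 also: growth inhibition of TE-10 cells, measured by a cell viability assay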
Description: SANGER: Inhibition of human TE-10 cell growth in a cell viability assay.

[49] = system: TE-9; format: functional, cell-based, Homo sapiens;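 also: cell growth inhibition, measured with a cell viability readout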
Description: SANGER: Inhibition of human TE-9 cell growth in a cell viability assay.

[50] = system: UMUC3; format: functional, cell-based, Homo sapiens;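 also: growth inhibition of human UM-UC-3 cells, read out with a cell viability assay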
Description: SANGER: Inhibition of human UM-UC-3 cell growth in a cell viability assay.

[51] = system: KURAMOCHI; format: functional, cell-based; details: Homo sapiens;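 also: growth inhibition of KURAMOCHI cells, read out with a cell viability assay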
Description: SANGER: Inhibition of human KURAMOCHI cell growth in a cell viability assay.

[52] = system: RXF 393; format: functional, cell-based; details: Homo sapiens;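 also: growth inhibition of human RXF 393 cells, read out with a cell viability assay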
Description: SANGER: Inhibition of human RXF393 cell growth in a cell viability assay.

SMILES: Cc1cc([C@@H](C)Nc2ccccc2C(=O)O)c2nc(N3CCOCC3)cc(=O)n2c1 [AZD-6482]
- IC50 ([1]; colo-741): > 5.12 µM
- IC50 ([2]; colo-829): > 5.12 µM
- IC50 ([3]; calu-3): 3.44 µM and > 5.12 µM
- IC50 ([4]; ekvx): > 5.12 µM
- IC50 ([5]; es8): > 5.12 µM
- IC50 ([6]; ew-16): > 5.12 µM
- IC50 ([7]; gak): > 5.12 µM
- IC50 ([8]; gi-me-n): > 5.12 µM
- IC50 ([9]; Homo sapiens, GMS-10): > 5.12 µM
- IC50 ([9]; gms-10): > 5.12 µM
- IC50 [10]: > 5.12 µM
- IC50 ([11]; hcc38): > 5.12 µM
- IC50 ([12]; hce-t): > 5.12 µM and 2.09 µM
- IC50 ([13]; hd-my-z): > 5.12 µM
- IC50 ([14]; hop-62): > 5.12 µM
- IC50 ([15]; hup-t3): > 5.12 µM
- IC50 ([16]; ist-mes1): > 5.12 µM
- IC50 [17]: > 5.12 µM
- IC50 [18]: > 5.12 µM
- IC50 [19]: > 5.12 µM
- IC50 ([20]; Homo sapiens, LB1047-RCC): > 5.12 µM
- IC50 ([20]; lb1047-rcc): > 5.12 µM
- IC50 ([21]; lk-2): > 5.12 µM
- IC50 ([22]; Homo sapiens, MZ7-mel): > 5.12 µM
- IC50 ([22]; mz7-mel): > 5.12 µM
- IC50 [23]: > 5.12 µM
- IC50 ([24]; nb6): > 5.12 µM
- IC50 ([25]; nci-h2052): > 5.12 µM and 0.915 µM
- IC50 ([26]; nci-h28): > 5.12 µM
- IC50 ([27]; nci-n87): > 5.12 µM
- IC50 [28]: 3.32 µM
- IC50 [29]: > 5.12 µM
- IC50 ([30]; ovcar-5): > 5.12 µM
- IC50 ([31]; pc-3): > 5.12 µM
- IC50 ([32]; Homo sapiens, RD): > 5.12 µM
- IC50 ([32]; rd): > 5.12 µM
- IC50 [33]: > 5.12 µM
- IC50 [34]: > 5.12 µM
- IC50 ([35]; sf-295): 2.77 µM and > 5.12 µM
- IC50 ([36]; Homo sapiens, SK-MEL-2): > 5.12 µM
- IC50 ([36]; sk-mel-2): > 5.12 µM
- IC50 ([37]; skg-iiia): > 5.12 µM
- IC50 ([38]; sw837): > 5.12 µM
- IC50 ([39]; 769-p): > 5.12 µM
- IC50 [40]: 1.99 µM
- IC50 ([40]; Homo sapiens): 1.31 µM
- IC50 ([41]; 8305c): > 5.12 µM
- IC50 ([42]; a2780): > 5.12 µM and 2.56 µM
- IC50 ([43]; Homo sapiens, BB30-HNC): 4.89 µM
- IC50 ([43]; bb30-hnc): > 5.12 µM
- IC50 ([44]; bht-101): > 5.12 µM and 1.16 µM
- IC50 ([45]; becker): 1.36 µM and 4.54 µM
- IC50 ([46]; c-33-a): > 5.12 µM
- IC50 ([47]; Homo sapiens, CAL-27): > 5.12 µM
- IC50 ([47]; cal-27): > 5.12 µM
- IC50 ([48]; te-10): > 5.12 µM
- IC50 ([49]; te-9): > 5.12 µM
- IC50 ([50]; umuc3): > 5.12 µM

SMILES: O=c1cc(-c2cccc3c2Sc2ccccc2S3)oc(N2CCOCC2)c1 [KU-55933]
- IC50 ([1]; Homo sapiens, COLO-741): > 10 µM
- IC50 ([2]; Homo sapiens, COLO-829): > 10 µM
- IC50 ([3]; Homo sapiens, Calu-3): > 10 µM
- IC50 ([4]; Homo sapiens, EKVX): > 10 µM
- IC50 ([5]; Homo sapiens, ES8): > 10 µM
- IC50 ([6]; Homo sapiens, EW-16): > 10 µM
- IC50 ([7]; Homo sapiens, GAK): > 10 µM
- IC50 ([8]; Homo sapiens, GI-ME-N): > 10 µM
- IC50 ([9]; Homo sapiens, GMS-10): > 10 µM
- IC50 ([11]; Homo sapiens, HCC38): > 10 µM
- IC50 ([12]; Homo sapiens, HCE-T): > 10 µM
- IC50 ([13]; Homo sapiens, HD-MY-Z): > 10 µM
- IC50 ([14]; Homo sapiens, HOP-62): > 10 µM
- IC50 ([15]; Homo sapiens, HuP-T3): > 10 µM
- IC50 ([16]; Homo sapiens, IST-MES1): > 10 µM
- IC50 [17]: > 10 µM
- IC50 [18]: > 10 µM
- IC50 [51]: > 10 µM
- IC50 [19]: > 10 µM
- IC50 ([20]; Homo sapiens, LB1047-RCC): > 10 µM
- IC50 ([21]; Homo sapiens, LK-2): > 10 µM
- IC50 ([22]; Homo sapiens, MZ7-mel): > 10 µM
- IC50 [23]: > 10 µM
- IC50 ([24]; Homo sapiens, NB6): > 10 µM
- IC50 ([25]; Homo sapiens, NCI-H2052): > 10 µM
- IC50 ([26]; Homo sapiens, NCI-H28): > 10 µM
- IC50 ([27]; Homo sapiens, NCI-N87): > 10 µM
- IC50 [28]: > 10 µM
- IC50 [29]: > 10 µM
- IC50 ([30]; Homo sapiens, OVCAR-5): > 10 µM
- IC50 ([31]; Homo sapiens, PC-3): > 10 µM
- IC50 ([32]; Homo sapiens, RD): > 10 µM
- IC50 [33]: > 10 µM
- IC50 [52]: > 10 µM
- IC50 ([35]; Homo sapiens, SF-295): > 10 µM
- IC50 ([36]; Homo sapiens, SK-MEL-2): > 10 µM
- IC50 ([37]; Homo sapiens, SKG-IIIa): > 10 µM
- IC50 ([38]; Homo sapiens, SW837): > 10 µM
- IC50 ([39]; Homo sapiens, 769-P): > 10 µM
- IC50 ([40]; Homo sapiens): > 10 µM
- IC50 ([41]; Homo sapiens, 8305C): > 10 µM
- IC50 ([42]; Homo sapiens, A2780): > 10 µM
- IC50 ([43]; Homo sapiens, BB30-HNC): > 10 µM
- IC50 ([44]; Homo sapiens, BHT-101): > 10 µM
- IC50 ([45]; Homo sapiens, Becker): > 10 µM
- IC50 ([46]; Homo sapiens, C-33-A): > 10 µM
- IC50 ([47]; Homo sapiens, CAL-27): > 10 µM
- IC50 ([48]; Homo sapiens, TE-10): > 10 µM
- IC50 ([49]; Homo sapiens, TE-9): > 10 µM
- IC50 ([50]; Homo sapiens, UMUC3): > 10 µM
